We go through 1 compound from US9511074B2, “Methods of treating disorders associated with protein polymerization” (UNIVERSITY OF PITTSBURGH—OF THE COMMONWEALTH SYSTEM OF …, priority 2009, dated 2016).

In one test the test system is PiZ×IKKbDhep mouse. As to the kind of experiment: Hepatic hydroxyproline in PiZ×IKKbDhep mouse model. It counts as in vivo. As to conditions: FIG. 7. The source says: Transgenic Mice PiZ mice that have been bred into the C57/BL6 background have been described previously (1). For the second and third series of experiments with CBZ we used PiZ mice that were re-derived onto the FVB/N background for a move into a new animal facility. The transgene that was used to generate the PiZ mouse is a genomic fragment of DNA that contains the coding regions of the ATZ gene together with introns and ˜2 kilobases of upstream and downstream flanking regions (10). […] In this perspective it is not an exact phenocopy of the classical form of AT deficiency. In particular it cannot be a model for the loss-of-function mechanisms associated with the classical form of AT deficiency. […]
Histology Sections of liver tissue were stained with hematoxylin and eosin, PAS, PAS after diastase treatment, TUNEL, PCNA, Ki67 and Sirius Red using standard techniques (18). […] The number of inflammatory nodules, AT-containing globules and autophagosomes were each quantified blindly by counting cells in 6 microscopic fields of 10 different sections for each liver. The number of nuclei, as determined by Hoechst staining, was used to exclude the possibility that different numbers of cells were counted in liver sections from mice treated with CBZ as compared to controls. Hepatic hydroxyproline concentration was determined by a well-established protocol (20,21).

For test [1], the system named is ATZ in the HTO/Z cell line. Kind of test: Steady state levels of ATZ in the HTO/Z cell line (immunoblot of insoluble and soluble fractions). As to conditions: HTO/Z cells. It counts as cell-based, human. The source says:
(§1) Cell Lines The human epidermal HeLa cell line with doxycycline-regulated expression of ATZ (HTO/Z) has been described previously (1). HTO/M and HTO/Saar are HeLa cell lines with doxycycline-regulated expression of wild type AT and the AT Saar variant, respectively (1). A murine embryonic fibroblast cell line (MEF) with targeted disruption of Atg5 (2) was engineered for stable expression of ATZ using the previously described pRc/RSV-ATZ expression plasmid (3). A wild type MEF cell line was also engineered for stable expression of ATZ in the same way to serve as control. For experiments with CBZ, the inducible cell lines were cultured in the absence of doxycycline for at least 4 weeks for maximal expression of AT. The cells were then subcultured into separate monolayers in fresh complete growth medium and incubated for 48 hours in the absence or presence of CBZ or rapamycin (RAP). CBZ or RAP were added to the growth medium. The duration of incubation with CBZ was determined to be optimal at 48 hours based on experiments in which the duration was varied from 12 to 72 hours. Doses of CBZ were based on previous studies of its effects in cell lines (5,6). Doses of RAP were based on previous positive effects on autophagic disposal of polyglutamine-repeat proteins (7). After the incubation cells were homogenized and cell homogenates separated into insoluble and soluble fractions according to our previously established technique (8). Samples of 20 μgs each were subjected to immunoblot analysis for AT, BiP and GAPDH.
For immunoblot analysis to detect AT, GAPDH or LC3, cells were lysed in 50 mM Tris-HCl, 150 mM NaCl, 1% NP-40, pH 8.0. Protein levels were quantified using the BCA protein assay (Pierce Biotechnology, Rockford, Ill.). 10-50 μg samples were loaded onto 7.5% precast gels. PVDF membranes were blocked in TBS, 0.5% Tween 20 (TBST), 5% milk and then incubated with primary antibody in 5% milk TBST solution. Horseradish peroxidase anti-goat Ig or anti-mouse Ig (Jackson Labs, Bar Harbor, Me.) were used as secondary antibodies in TBST. Blots were visualized with Super Signal West Dura or West Femto from Pierce.
On the technique in general: Immunoblotting shows a protein as a band on a membrane.

The next test deals with PiZ mice. As to the kind of experiment: Pulmonary fibrosis in PiZ mice (Sirius Red staining with quantitative morphometry). It counts as in vivo, mouse. As to conditions: 3-month-old PiZ mice, 200 mg/kg/day, 5 days per week for 3 weeks. The method, then: Experiments were performed to determine if CBZ can mediate a decrease in lung fibrosis in the PiZ mouse in vivo. 3-month-old PiZ mice were treated 5 days per week for 3 weeks with diluent DMSO or CBZ 200 mg/kg/day (n=3-8 mice per group). In this series of experiments lung fibrosis was assayed by Sirius Red staining with quantitative morphometry.

In test [2] the test system is wild type AT in the HTO/M cell line. Kind of test: Steady state levels of wild type AT in the HTO/M cell line (immunoblot). It is filed as cell-based, human. As to conditions: FIG. 1D.
From the text: as §1, with “Doses of RAP were based on previous positive effects on autophagic disposal of polyglutamine-repeat proteins (7). After the incubation cells were homogenized and cell homogenates separated into insoluble and soluble fractions according to our previously established technique (8). Samples of 20 μgs each were subjected to immunoblot analysis for AT, BiP and GAPDH.” left out
(§2) For immunoblot analysis to detect AT, GAPDH or LC3, cells were lysed in 50 mM Tris-HCl, 150 mM NaCl, 1% NP-40, pH 8.0. Protein levels were quantified using the BCA protein assay (Pierce Biotechnology, Rockford, Ill.). […]

The test system of the next test is APP-PS1 mouse. As to the kind of experiment: Plaque load and Aβ ELISA in APP-PS1 mouse model of AD. It is filed as in vivo. As to conditions: APP-PS1 mice, 200 mg/kg/day gavage, 5 doses per wk, 3 wks. The source says: The APP-PS1 mouse model of AD is associated with accelerated amyloid deposition with plaques resembling AD in humans starting to appear at 12 weeks of age (12) and progressive behavioral changes starting at 6 months of age (55, 56). Only a limited number of mice were available at the ideal age, 9 wks, at the time of the study, so the pilot study was very small. 9-12 wks of age was selected as the ideal age because it represents the age with the earliest consistent appearance of AP deposition in APP-PS1 mice. Mice were treated by orogastric gavage with CBZ 200 mg/kg/day, 5 doses per wk, for 3 wks; n=2 for CBZ and n=4 for vehicle (DMSO). Brain sections were stained with X-34, antibodies to Aβ1-40 and Aβ1-42 to determine plaque load using techniques as described previously (57).

The test system of test [3] is ATZ in wild-type mouse embryonic fibroblast (MEF) cell line. As to the kind of experiment: ATZ levels in wild-type (Atg5+/+) MEF cell line. It is filed as cell-based, murine.
From the text: as §1, with “Doses of RAP were based on previous positive effects on autophagic disposal of polyglutamine-repeat proteins (7). After the incubation cells were homogenized and cell homogenates separated into insoluble and soluble fractions according to our previously established technique (8). Samples of 20 μgs each were subjected to immunoblot analysis for AT, BiP and GAPDH.” left out
as §2

Setting [4] is: 48 hours incubation, immunoblot.

Consider `NC(=O)N1c2ccccc2C=Cc2ccccc21` [CBZ, 5H-dibenz [b,f]azepine-5-carboxamide], for which, in the test with PiZ×IKKbDhep mouse, the hepatic hydroxyproline concentration result is “decrease”. Also, the “minimal effective dose on ATZ levels” value in test [1] worked out at 3 µM. In addition, in test [1] (setting [4]), the “steady-state levels of ATZ, insoluble fraction” value is “marked decrease” and the “steady-state levels of ATZ, soluble fraction” value is “marked decrease”. For the same compound, the “Sirius red staining of lung (pulmonary fibrosis)” value with PiZ mice is reported as “statistically significant reduction”. For the same compound, the “wild-type AT levels” value in test [2] is given as “did not affect”. Further, in the test on APP-PS1 mouse, the “soluble and insoluble Aβ1-40 and Aβ1-42 by ELISA” value is “trend toward lower values”. Moreover, the “plaque load (X-34, anti-Aβ1-40, anti-Aβ1-42 staining)” value in the test with APP-PS1 mouse (n=2) is on record as “marked reduction”. In addition, in test [3] (wild-type MEF cell line), the “levels of insoluble ATZ” value was “decrease”. For the same compound, the “levels of soluble ATZ” value in test [3] (wild-type MEF cells) is given as “decrease”.
